2 compounds from US20040053915A1, “Use of stimulators of soluble guanylate cyclase for treating osteoporosis” (priority 2000, published 2004) can be followed below.

In this experiment the test system is rats of the strain HsdCpb:Wu. The experiment is described as follows: Increased bone formation in rats after 4 weeks of once-daily administration via stomach tube. It is filed as in vivo. To be noted: once per day via stomach tube, male and female rats, all test animals. How it is done: For a period of 4 weeks, one of the two compounds listed in Table 1 was administered, in each case in one of the concentrations given in Table 1, once per day via a stomach tube to 10 male and 10 female rats of the strain HsdCpb:Wu. […] Pathological endosteal or periosteal changes were not noticed.

As for `Nc1nc(-c2nn(Cc3ccccc3F)c3ncccc23)ncc1C1CC1` [Compound 1], under “50 mg/kg or more”, the “bone formation in the area of the spongioid bone proximally and distally to the epiphyseal arcus of the great tubular bones” value is “increased bone formation”.
As to `Nc1nc(-c2nn(Cc3ccccc3F)c3ncccc23)nc(N)c1N1CCOCC1` [Compound 2], the “bone formation in the area of the spongioid bone proximally and distally to the epiphyseal arcus of the great tubular bones” value (5 mg/kg or more) was “increased bone formation”.
